Test results published in PubChem BioAssay AID1963841 (Molecular Pharmacology Branch, DTP, NCI, 2024).

System: 439559-082-T-J2-PDC spheroid viability
Test: Anticancer human tumor 439559-082-T-J2-PDC patient-derived colon adenocarcinoma cell line growth inhibition [POLQ]
Conditions: spheroids with HUVEC and MSC; for IC50: curve of first compound; for viability, T/C: stronger effect = lower value
How it was run: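 Three-cell-type spheroids modelling solid tumor plus stroma served as the readout system; POL inhibitors were tested individually and in combination, concentration ranges set by clinical Cmax where known.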
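Further: spheroids exposed to compounds for seven days before readout.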
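Wherever viability, T/C is given: 100% = DMSO vehicle control viability.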

CC(=O)O[C@H]1C(=O)[C@@]2(C)[C@H]([C@H](OC(=O)c3ccccc3)[C@]3(O)C[C@H](OC(=O)[C@H](O)[C@@H](NC(=O)c4ccccc4)c4ccccc4)C(C)=C1C3(C)C)[C@]1(OC(C)=O)CO[C@@H]1C[C@@H]2O + COC1C(OC(N)=O)C(O)C(Oc2ccc3c(O)c(NC(=O)c4ccc(O)c(CC=C(C)C)c4)c(=O)oc3c2C)OC1(C)C
IC50 (second compound 0.0316 µM): 1050 nM
IC50 (second compound 0.1 µM): 1480 nM
IC50 (second compound 0.316 µM): 1380 nM
IC50 (second compound 1 µM): 1500 nM
IC50 (second compound 3.16 µM): 1280 nM
IC50 (second compound 10 µM): 1530 nM
viability, T/C (second compound 0.0316 µM, first compound 0.00949 µM): 87.2%
viability, T/C (second compound 0.0316 µM, first compound 0.03 µM): 90.8%
viability, T/C (second compound 0.0316 µM, first compound 0.0949 µM): 78.8%
viability, T/C (second compound 0.0316 µM, first compound 0.3 µM): 77%
viability, T/C (second compound 0.0316 µM, first compound 0.949 µM): 49.9%
viability, T/C (second compound 0.0316 µM, first compound 3 µM): 39.4%
viability, T/C (second compound 0.1 µM, first compound 0.00949 µM): 90.8%
viability, T/C (second compound 0.1 µM, first compound 0.03 µM): 88.4%
viability, T/C (second compound 0.1 µM, first compound 0.0949 µM): 80.6%
viability, T/C (second compound 0.1 µM, first compound 0.3 µM): 75.3%
viability, T/C (second compound 0.1 µM, first compound 0.949 µM): 57.1%
viability, T/C (second compound 0.1 µM, first compound 3 µM): 37.4%
viability, T/C (second compound 0.316 µM, first compound 0.00949 µM): 93.5%
viability, T/C (second compound 0.316 µM, first compound 0.03 µM): 89.6%
viability, T/C (second compound 0.316 µM, first compound 0.0949 µM): 80.4%
viability, T/C (second compound 0.316 µM, first compound 0.3 µM): 71%
viability, T/C (second compound 0.316 µM, first compound 0.949 µM): 56.5%
viability, T/C (second compound 0.316 µM, first compound 3 µM): 37.1%
viability, T/C (second compound 1 µM, first compound 0.00949 µM): 90.1%
viability, T/C (second compound 1 µM, first compound 0.03 µM): 87.2%
viability, T/C (second compound 1 µM, first compound 0.0949 µM): 79.3%
viability, T/C (second compound 1 µM, first compound 0.3 µM): 73%
viability, T/C (second compound 1 µM, first compound 0.949 µM): 57.8%
viability, T/C (second compound 1 µM, first compound 3 µM): 38.5%
viability, T/C (second compound 3.16 µM, first compound 0.00949 µM): 90.3%
viability, T/C (second compound 3.16 µM, first compound 0.03 µM): 83.3%
viability, T/C (second compound 3.16 µM, first compound 0.0949 µM): 82.3%
viability, T/C (second compound 3.16 µM, first compound 0.3 µM): 69.1%
viability, T/C (second compound 3.16 µM, first compound 0.949 µM): 53.2%
viability, T/C (second compound 3.16 µM, first compound 3 µM): 40.4%
viability, T/C (second compound 10 µM, first compound 0.00949 µM): 90.8%
viability, T/C (second compound 10 µM, first compound 0.03 µM): 80.1%
viability, T/C (second compound 10 µM, first compound 0.0949 µM): 80.5%
viability, T/C (second compound 10 µM, first compound 0.3 µM): 74.8%
viability, T/C (second compound 10 µM, first compound 0.949 µM): 55%
viability, T/C (second compound 10 µM, first compound 3 µM): 40.2%

COc1cccc2c1C(=O)c1c(O)c3c(c(O)c1C2=O)CC(O)(C(=O)CO)CC3OC1CC(N)C(O)C(C)O1 (centres undefined) + COC1C(OC(N)=O)C(O)C(Oc2ccc3c(O)c(NC(=O)c4ccc(O)c(CC=C(C)C)c4)c(=O)oc3c2C)OC1(C)C
IC50 (second compound 0.0316 µM): 9870 nM
IC50 (second compound 0.1 µM): > 10000 nM
IC50 (second compound 0.316 µM): 6360 nM
IC50 (second compound 1 µM): 9500 nM
IC50 (second compound 3.16 µM): 7790 nM
IC50 (second compound 10 µM): 7690 nM
viability, T/C (second compound 0.0316 µM, first compound 0.0316 µM): 94.1%
viability, T/C (second compound 0.0316 µM, first compound 0.1 µM): 102%
viability, T/C (second compound 0.0316 µM, first compound 0.316 µM): 88.1%
viability, T/C (second compound 0.0316 µM, first compound 1 µM): 70%
viability, T/C (second compound 0.0316 µM, first compound 3.16 µM): 64.5%
viability, T/C (second compound 0.0316 µM, first compound 10 µM): 47.9%
viability, T/C (second compound 0.1 µM, first compound 0.0316 µM): 105%
viability, T/C (second compound 0.1 µM, first compound 0.1 µM): 108%
viability, T/C (second compound 0.1 µM, first compound 0.316 µM): 82.9%
viability, T/C (second compound 0.1 µM, first compound 1 µM): 68.2%
viability, T/C (second compound 0.1 µM, first compound 3.16 µM): 59.9%
viability, T/C (second compound 0.1 µM, first compound 10 µM): 49.6%
viability, T/C (second compound 0.316 µM, first compound 0.0316 µM): 97.7%
viability, T/C (second compound 0.316 µM, first compound 0.1 µM): 98.8%
viability, T/C (second compound 0.316 µM, first compound 0.316 µM): 77.3%
viability, T/C (second compound 0.316 µM, first compound 1 µM): 70.2%
viability, T/C (second compound 0.316 µM, first compound 3.16 µM): 59.7%
viability, T/C (second compound 0.316 µM, first compound 10 µM): 44.3%
viability, T/C (second compound 1 µM, first compound 0.0316 µM): 98.8%
viability, T/C (second compound 1 µM, first compound 0.1 µM): 104%
viability, T/C (second compound 1 µM, first compound 0.316 µM): 84.7%
viability, T/C (second compound 1 µM, first compound 1 µM): 65.8%
viability, T/C (second compound 1 µM, first compound 3.16 µM): 56.1%
viability, T/C (second compound 1 µM, first compound 10 µM): 47.7%
viability, T/C (second compound 3.16 µM, first compound 0.0316 µM): 104%
viability, T/C (second compound 3.16 µM, first compound 0.1 µM): 98.9%
viability, T/C (second compound 3.16 µM, first compound 0.316 µM): 85.2%
viability, T/C (second compound 3.16 µM, first compound 1 µM): 66.4%
viability, T/C (second compound 3.16 µM, first compound 3.16 µM): 61.8%
viability, T/C (second compound 3.16 µM, first compound 10 µM): 46.2%
viability, T/C (second compound 10 µM, first compound 0.0316 µM): 95.3%
viability, T/C (second compound 10 µM, first compound 0.1 µM): 105%
viability, T/C (second compound 10 µM, first compound 0.316 µM): 85.9%
viability, T/C (second compound 10 µM, first compound 1 µM): 67.5%
viability, T/C (second compound 10 µM, first compound 3.16 µM): 61.4%
viability, T/C (second compound 10 µM, first compound 10 µM): 45.4%
